Experimental data reported in US20230365582A1, “NOVEL COMPOUNDS HAVING INHIBITORY ACTIVITY ON PROSTAGLANDIN E2 RECEPTOR AND USES THEREOF” (KANAPH THERAPEUTICS INC., priority 2020, published 2023).

Experiments:
hEP4 = target: T1, hEP4 (Homo sapiens, UniProt P35408); assay: hEP4 cAMP assay; assay type: cell-based; conditions: HEK293 cells overexpressing hEP4; PGE2 agonist 20 nM; graded per Table 21; read-out: IC50 (nM) EP4 cAMP
T1 construct: expressed in transfected cells; host or cells: HEK293
Outline: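 HEK293 cells overexpressing hEP4, starved 4 h, were treated with compound (10 μM-0.001 nM) plus 20 nM PGE2 (EC50-80) in HBSS buffer with 0.5 mM IBMX for 18.5 min at room temperature. cAMP was read by TR-FRET (665/615 nm) as % of DMSO control; IC50 from 4-parameter fit, median of multiple experiments.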

hEP2 = target: T2, hEP2 (Homo sapiens, UniProt P43116); assay: hEP2 cAMP assay; assay type: cell-based; conditions: HEK293 cells overexpressing hEP2; PGE2 agonist 400 pM; graded per Table 21; read-out: IC50 (nM) EP2 cAMP
T2 construct: expressed in transfected cells; host or cells: HEK293
Outline: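 HEK293 cells overexpressing hEP2, serum-starved 4 h, then 1,000 cells/well treated with compound (10 μM–0.001 nM) plus 400 pM PGE2 (about EC50-80) in HBSS buffer with 0.5 mM IBMX for 12 min at room temperature. cAMP measured by TR-FRET (665/615 nm) as % of DMSO control; IC50 from 4-parameter fit, median of repeats.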

T2 sequence (P43116 whole entry): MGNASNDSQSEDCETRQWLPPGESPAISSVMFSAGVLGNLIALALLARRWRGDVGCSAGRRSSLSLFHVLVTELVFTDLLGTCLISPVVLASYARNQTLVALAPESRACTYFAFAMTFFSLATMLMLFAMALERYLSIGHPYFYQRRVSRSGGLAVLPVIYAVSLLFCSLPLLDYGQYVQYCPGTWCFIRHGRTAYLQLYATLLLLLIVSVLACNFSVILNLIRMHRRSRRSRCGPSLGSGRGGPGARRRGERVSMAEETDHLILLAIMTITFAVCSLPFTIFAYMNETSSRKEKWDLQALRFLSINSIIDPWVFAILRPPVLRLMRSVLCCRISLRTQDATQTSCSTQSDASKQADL
T1 sequence (P35408 whole entry): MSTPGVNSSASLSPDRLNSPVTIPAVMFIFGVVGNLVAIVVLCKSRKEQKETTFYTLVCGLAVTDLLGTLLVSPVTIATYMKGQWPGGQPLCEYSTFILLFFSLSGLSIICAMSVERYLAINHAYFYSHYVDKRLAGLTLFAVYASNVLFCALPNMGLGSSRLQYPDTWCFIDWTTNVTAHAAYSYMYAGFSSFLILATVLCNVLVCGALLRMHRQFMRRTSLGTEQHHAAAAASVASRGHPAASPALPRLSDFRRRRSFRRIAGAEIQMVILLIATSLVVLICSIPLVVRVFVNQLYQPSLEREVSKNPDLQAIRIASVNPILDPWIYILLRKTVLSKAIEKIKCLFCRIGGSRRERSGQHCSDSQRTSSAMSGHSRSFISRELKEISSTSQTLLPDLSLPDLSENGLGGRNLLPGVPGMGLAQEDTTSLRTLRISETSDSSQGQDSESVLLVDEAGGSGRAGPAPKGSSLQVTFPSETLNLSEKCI

IC50 (hEP4) [nM] | IC50 (hEP2) [nM] | SMILES
500 to 5000 | 5000 to 10000 | COc1cc(F)cc(-c2ccc(Cc3c(C)sc(C)c3C(=O)N[C@H]3CC4(C3)C[C@H](C(=O)O)C4)cc2)c1 (single isomer, unassigned) [Example 34a]
< 500 | 500 to 5000 | Cc1sc(C)c(C(=O)NC2CC3(C2)CC(C(=O)O)C3)c1Cc1ccc(-c2cc(N)cc(F)c2)cc1 (centres unmarked) [Example 54, 6-(4-((3′-amino-5′-fluoro-[1,1′-biphenyl]-4-yl)methyl)-2,5-dimethylthiophene-3-carboxamido)spiro[3.3]heptane-2-carboxylic acid]
> 10000 | > 10000 | O=C(NC1CC2(C1)CC(C(=O)O)C2)c1csc(-c2ccccc2)c1Cc1ccc(-c2ccccc2)cc1 (centres unmarked) [Example 21, 6-(4-([1,1′-biphenyl]-4-ylmethyl)-5-phenylthiophene-3-carboxamido)spiro[3.3] heptane-2-carboxylic acid]
500 to 5000 | 500 to 5000 | Cc1scc(Cc2ccc(-c3ccccc3)cc2)c1C(=O)NC1CC2(C1)CC(C(=O)O)C2 (centres unmarked) [Example 14, 6-(4-([1,1′-biphenyl]-4-ylmethyl)-2-methylthiophene-3-carboxamido)spiro[3.3]heptane-2-carboxylic acid]
> 10000 | > 10000 | Cc1sc(C)c(C(=O)N(C)C2CC3(CC(C(=O)O)C3)C2)c1Cc1ccc(-c2ccccc2)cc1 (centres unmarked) [Example 73, 6-(4-([1,1′-biphenyl]-4-ylmethyl)-N,2,5-trimethylthiophene-3-carboxamido)spiro[3.3]heptane-2-carboxylic acid]
< 500 | < 500 | O=C(NC1CC2(C1)CC(C(=O)O)C2)c1csc(Br)c1Cc1ccc(-c2ccccc2)cc1 (centres unmarked) [Example 15, 6-(4-([1,1′-biphenyl]-4-ylmethyl)-5-bromothiophene-3-carboxamido)spiro[3.3]heptane-2-carboxylic acid]
< 500 | < 500 | O=C(NC1CC2(C1)CC(C(=O)O)C2)c1csc2ccn(Cc3ccc(-c4cccc(F)c4)cc3)c12 (centres unmarked) [Example 92, 6-(4-((3′-fluoro-[1,1′-biphenyl]-4-yl)methyl)-4H-thieno[3,2-b]pyrrole-3-carboxamido)spiro[3.3]heptane-2-carboxylic acid]
> 10000 | > 10000 | COC(c1ccc(-c2ccccc2)cc1)c1c(C)sc(C)c1C(=O)NC1CC2(C1)CC(C(=O)O)C2 (centres unmarked) [Example 12, 6-(4-([1,1′-biphenyl]-4-yl(methoxy)methyl)-2,5-dimethylthiophene-3-carboxamido)spiro[3.3]heptane-2-carboxylic acid]
5000 to 10000 | > 10000 | Cc1sc(C)c(C(=O)NC2CC3(C2)CC(C(=O)O)C3)c1Cc1ccc(-c2ccccc2O)cc1 (centres unmarked) [Example 25, 6-(4-((2′-hydroxy-[1,1′-biphenyl]-4-yl)methyl)-2,5-dimethylthiophene-3-carboxamido)spiro[3.3] heptane-2-carboxylic acid]
5000 to 10000 | 500 to 5000 | O=C(NC12CCC(C(=O)O)(CC1)CC2)c1csc2ccn(Cc3ccc(-c4ccccc4)cc3)c12 [Example 88, 4-(4-([1,1′-biphenyl]-4-ylmethyl)-4H-thieno[3,2-b]pyrrole-3-carboxamido)bicyclo[2.2.2]octane-1-carboxylic acid]
> 10000 | > 10000 | O=C(N[C@H]1C[C@@H](C(=O)O)C1)c1csc2ccn(Cc3ccc(-c4ccccc4)cc3)c12 [Example 84, (1S,3S)-3-(4-([1,1′-biphenyl]-4-ylmethyl)-4H-thieno[3,2-b]pyrrole-3-carboxamido)cyclobutane-1-carboxylic acid]
< 500 | < 500 | COc1cc(F)cc(-c2ccc(Cn3ccc4scc(C(=O)NC5CC6(C5)CC(C(=O)O)C6)c43)cc2)c1 (centres unmarked) [Example 97, 6-4-((3′-fluoro-5′-methoxy[1,1′-biphenyl-4-yl)methyl)-4H-thieno[3,2-b]pyrrole-3-carboxamido)spiro[3.3]heptane-2-carboxylic acid]
< 500 | 500 to 5000 | Cc1ccc(-c2ccc(Cc3c(C)sc(C)c3C(=O)NC3CC4(C3)CC(C(=O)O)C4)cc2)cc1C (centres unmarked) [Example 28, 6-(4-((3′,4′-dimethyl-[1,1′-biphenyl]-4-yl)methyl)-2,5-dimethylthiophene-3-carboxamido)spiro[3.3]heptane-2-carboxylic acid]
